Measurements reported in patent US12421260B2, “Neurokinin-1 antagonist” (SHANGHAI SHENGDI PHARMACEUTICAL CO., LTD, priority 2019, dated 2025).
≈ marks a conversion by molar mass, not a printed value.

How the values were obtained:
[1] = Plasma stability test (Test Example 3); assay type: in vitro ADME; settings: human plasma; for plasma concentration of the compound of the examples / plasma concentration of rolapitant after metabolism of the compound of the examples: 37° C.; for stability and metabolism to rolapitant in plasma (in words): up to 180 min
Description: The compounds of Example 4, Example 6, Example 10 and Example 11.
Human fresh plasma was donated by volunteers with informed consent.
1) The test compounds in Table 3 were respectively prepared into 30 mM stock solutions with DMSO for later use.
2) The 30 mM stock solution was diluted with DMSO solution to solution I at a concentration of 1600 μM. Then the 1600 μM solution I was diluted with acetonitrile (ACN) to a working solution II at a concentration of 16 μM.
3) 7 time points of 0, 15, 30, 60, 90, 120 and 180 min were set in the experiment with two parallel samples for each time point. Two sample groups were set for each compound. 75 μL plasma and 5 μL of the above prepared working solution II with a concentration of 16 μM were added to each group. The reaction system was incubated at 37° C. until the preset time when the reaction was stopped by 300 μL of the ACN solution containing the internal standard. The reaction mixture was centrifuged at 3700 rpm for 10 min, and the supernatant was collected for analysis.
4) Preparation of the standard curve: the previously diluted 1600 μM solution I was diluted with acetonitrile to 1.5 μM/mL solution III as the standard curve for later use. The standard curve concentration was set to […]. After dilution of each concentration of the standard curve, 75 μL plasma was added to 5 μL of each concentration point at a final concentration of 0.02, 0.05, 0.1, 0.25, 0.75, 1.0 and 1.5 uM, respectively. 300 μL stop solution was then added to the samples quickly which was then centrifuged at 3700 rpm for 10 min, and the supernatant was collected for LC-MSMS analysis.

[2] = Chemical stability of the compounds (Test Example 1); assay type: physicochemical; settings: purity loss after placing for 7 days; 4° C. and room temperature
Description: 2.1 Test of Stability of the Compounds
About 1 mg of sample was weighed into a vial, then the vial was placed in a vacuum bag and the bag was vacuumized. Then the bag was put into a container containing color-changing silica gel and sealed. Two parallel samples were prepared. Enough samples were prepared according to the sampling time point and placed at 4° C. and room temperature respectively.

[3] = Water solubility (Test Example 1); assay type: physicochemical; settings: PH = 3
Description: 1.1. Preparation of Reagents
The 100 mL strength reagents were prepared as follows:
pH=3.0: phosphate buffer solution: 100 ml of 20 mmol/L NaH2PO4, 0.1M H3PO4, adjusting pH to 3.0.
pH=4.0: phosphate buffer solution: 100 ml of 20 mmol/L NaH2PO4, 0.1M H3PO4, adjusting pH to 4.0. […]
An appropriate amount of test compound was accurately weighed. The solution was added at a small amount each time for several times and stirred until the compound was dissolved, and the content of the compound in the solution was determined.

Row | SMILES | plasma concentration of the compound of the examples ([1]; 0 min) [µM] | plasma concentration of the compound of the examples ([1]; 15 min) [µM] | plasma concentration of the compound of the examples ([1]; 30 min) [µM] | plasma concentration of the compound of the examples ([1]; 60 min) [µM] | plasma concentration of the compound of the examples ([1]; 90 min) [µM] | plasma concentration of the compound of the examples ([1]; 120 min) [µM] | plasma concentration of the compound of the examples ([1]; 180 min) [µM] | stability and metabolism to rolapitant in plasma (in words) [1] | Chemical stability [2] | solubility ([3]; phosphate buffer, aqueous buffer, thermodynamic from solid) [µg/mL] | plasma concentration of rolapitant after metabolism of the compound of the examples ([1]; 0 min) [µM] | plasma concentration of rolapitant after metabolism of the compound of the examples ([1]; 15 min) [µM] | plasma concentration of rolapitant after metabolism of the compound of the examples ([1]; 30 min) [µM] | plasma concentration of rolapitant after metabolism of the compound of the examples ([1]; 60 min) [µM] | plasma concentration of rolapitant after metabolism of the compound of the examples ([1]; 90 min) [µM] | plasma concentration of rolapitant after metabolism of the compound of the examples ([1]; 120 min) [µM] | plasma concentration of rolapitant after metabolism of the compound of the examples ([1]; 180 min) [µM] | Water solubility [3]
1 | C[C@@H](OC[C@@]1(c2ccccc2)CC[C@]2(CCC(=O)N2C(=O)OCC(=O)O)CN1)c1cc(C(F)(F)F)cc(C(F)(F)F)c1 [Example 6] | 0.98 | 0.85 | 0.91 | 0.85 | 0.77 | 0.70 | 0.53 | overall amount of metabolism in plasma is relatively small | Good (purity reduced by <0.5% after placing for 7 days) | 1120 (≈ 1860 µM) |  |  |  |  |  |  |  | 
2 | CC(C)[C@H](N)C(=O)OCCOC(=O)N1C[C@@]2(CCC(=O)N2)CC[C@@]1(CO[C@H](C)c1cc(C(F)(F)F)cc(C(F)(F)F)c1)c1ccccc1.O=C(O)C(F)(F)F [Example 11] | 1.01 | 0.99 | 0.91 | 0.92 | 1.03 | 0.97 | 0.95 | relatively stable in plasma | Good (purity reduced by <0.5% after placing for 7 days) |  | 0.01 | 0.00 | 0.00 | 0.01 | 0.00 | 0.00 | 0.00 | 2.81 mg/mL(PH = 3) mg/ml
